Measured values published in paper PMC4311969 (Journal of the American Chemical Society, 2015).
Values joined by “and” are separate entries in the source; they are usually repeats but may differ in a detail not shown here. Identical values can stand only once. Counter-ions that a name gives are not always drawn. Like-named read-outs stand apart in the source and are kept apart here. One block for each molecule: values may come before it.

How the values were obtained:
[1] = molecular target: T1, yeast orotidine monophosphate decarboxylase (ScOMPDC) (Saccharomyces cerevisiae, UniProt P03962, C155S); experiment: Oxydianion activation of ScOMPDC-catalyzed decarboxylation of EO; format: biochemical
T1 sequence (P03962 1-267 C155S): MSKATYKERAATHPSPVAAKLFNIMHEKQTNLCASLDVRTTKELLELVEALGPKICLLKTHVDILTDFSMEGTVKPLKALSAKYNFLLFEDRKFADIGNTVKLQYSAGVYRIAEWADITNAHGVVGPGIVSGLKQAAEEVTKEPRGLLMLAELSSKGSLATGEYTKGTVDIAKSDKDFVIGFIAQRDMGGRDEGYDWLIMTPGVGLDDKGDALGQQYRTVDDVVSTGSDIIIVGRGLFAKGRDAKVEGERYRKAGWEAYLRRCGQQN

[2] = molecular target: T1, yeast orotidine monophosphate decarboxylase (ScOMPDC); conditions: cited from earlier work; for intrinsic oxydianion binding energy (ΔG^‡): ScOMPDC-catalyzed decarboxylation of EO
[3] = molecular target: T2, yeast triosephosphate isomerase (ScTIM) (Saccharomyces cerevisiae, UniProt P00942); experiment: Oxydianion activation of ScTIM-catalyzed reactions of [1-13C]-GA in D2O; format: biochemical; conditions: for Kd: read-out: KX, dissociation constant for release of the oxydianion from ScTIM, 20 mM [1-^13C]-GA in D2O, pD 7.0 (20 mM imidazole), I = 0.1 (NaCl), fit to eq 3; for Kd / RT ln(K^‡)X, intrinsic Gibbs dianion binding free energy: 25 °C; for RT ln(K^‡)X, intrinsic Gibbs dianion binding free energy: [1-^13C]-GA in D2O
T2 sequence (P00942 1-248): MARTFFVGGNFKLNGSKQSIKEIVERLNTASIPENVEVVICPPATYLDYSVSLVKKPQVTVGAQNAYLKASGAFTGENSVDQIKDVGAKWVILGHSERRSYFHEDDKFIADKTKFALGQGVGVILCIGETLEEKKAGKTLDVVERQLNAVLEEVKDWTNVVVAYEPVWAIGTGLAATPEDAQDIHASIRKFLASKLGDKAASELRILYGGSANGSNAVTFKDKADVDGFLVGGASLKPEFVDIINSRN

[4] = molecular target: T3, human liver glycerol 3-phosphate dehydrogenase (hlGPDH) (Homo sapiens, UniProt P21695); experiment: Oxydianion activation of hlGPDH-catalyzed reduction of GA by NADH; format: biochemical; conditions: for RT ln(K^‡)X, intrinsic Gibbs dianion binding free energy: hlGPDH-catalyzed reduction of GA
T3 sequence (P21695 1-349): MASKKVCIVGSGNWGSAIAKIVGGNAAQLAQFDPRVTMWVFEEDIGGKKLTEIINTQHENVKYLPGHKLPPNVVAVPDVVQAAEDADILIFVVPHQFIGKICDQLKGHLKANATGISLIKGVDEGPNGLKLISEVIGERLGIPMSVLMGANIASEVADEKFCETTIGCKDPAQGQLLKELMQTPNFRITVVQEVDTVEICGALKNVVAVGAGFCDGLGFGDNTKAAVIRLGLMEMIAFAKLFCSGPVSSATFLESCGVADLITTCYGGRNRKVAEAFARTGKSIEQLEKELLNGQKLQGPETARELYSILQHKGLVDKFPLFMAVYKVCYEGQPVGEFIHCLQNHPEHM

[5] = molecular target: T4, human liver GPDH (hlGPDH) (Homo sapiens, UniProt P21695); format: biochemical; conditions: identical plots at 0.10 or 0.20 mM NADH; printed ≪
T4 sequence (P21695 1-349): T3 sequence (P21695 1-349)

ScOMPDC = conditions: cited from earlier work
[6] = pH 7.5 (10 mM TEA), 25 °C, 0.2 mM NADH, I = 0.12 (NaCl)

k′cat, turnover of the complex between enzyme and substrate pieces ([1]; EO + HPO3^2–, calculated using published (kcat/Km)E·HPi and Kd (ref 10)): ≈ 160 ^f s^–1
SMILES: O=C(O)c1cc(=O)n([C@@H]2OC[C@@H](O)[C@H]2O)c(=O)[nH]1 [EO, 1-(β-D-erythrofuranosyl)orotic acid]
Kd ([2]; read-out: Kd of truncated substrate, substrate pieces, EO + HPO3^2–): 100 mM and ~100 mM

Kd [3]: 7 ± 1 mM
(kcat)E·X, first-order rate constant for turnover of the Michaelis complex [4, 6]: 0.0190 ± 0.002 s^–1
SMILES: O=S(O)(O)=S [S2O3^2–, thiosulfate dianion]
intrinsic oxydianion binding energy (ΔG^‡) [2]: -4.6 kcal/mol

Km [5]: < 100 µM
SMILES: NC(=O)C1=CN([C@@H]2O[C@H](COP(=O)(O)OP(=O)(O)OC[C@H]3O[C@@H](n4cnc5c(N)ncnc54)[C@H](O)[C@@H]3O)[C@@H](O)[C@H]2O)C=CC1 [NADH]

RT ln(K^‡)X, intrinsic Gibbs dianion binding free energy ([4]; 25 °C): –4.9 kcal/mol
(kcat)E·X, first-order rate constant for turnover of the Michaelis complex [4, 6]: 0.032 ± 0.002 s^–1
SMILES: O=P(O)(O)O [HOPO3^2–, phosphate]
intrinsic oxydianion binding energy (ΔG^‡) [2]: -3.0 kcal/mol

RT ln(K^‡)X, intrinsic Gibbs dianion binding free energy ([4]; 25 °C): –5.9 kcal/mol
(kcat)E·X, first-order rate constant for turnover of the Michaelis complex [4, 6]: 0.360 ± 0.040 s^–1
SMILES: O=S(=O)(O)O [SO4^2–, sulfate]
intrinsic oxydianion binding energy (ΔG^‡) [2]: -4.5 kcal/mol

k′cat, turnover of the complex between enzyme and substrate pieces ([4]; GA + HPO3^2–, estimated as [(kcat/Km)E·HPi]Kd): 5.5 s^–1
kcat, unactivated reduction of GA ([4]; no dianion, 0.05 mM hlGPDH, pH 7.5, 25 °C, 0.2 mM NADH, I = 0.12 (NaCl)): 3.1 × 10^–4 s^–1
KGA, unactivated reduction of GA ([4]; no dianion, carbonyl form of GA, pH 7.5, 25 °C, 0.2 mM NADH, I = 0.12 (NaCl)): 6.2 mM
Kd ([4]; read-out: Kd of truncated substrate, substrate pieces, GA + HPO3^2–): 5 mM
SMILES: O=CCO [GA, glycolaldehyde]

The remaining lines, values behind:

SMILES: O=S(O)O [SO3^2–]
intrinsic oxydianion binding energy (ΔG^‡) [2]: -8.3 kcal/mol

SMILES: O=[As](O)(O)O [HOAsO3^2–]
intrinsic oxydianion binding energy (ΔG^‡) [2]: no activation detected

SMILES: O=C(O)c1cc(=O)[nH]c(=O)n1[C@@H]1O[C@H](COP(=O)(O)O)[C@@H](O)[C@H]1O [OMP, Orotidine 5′-monophosphate]
kcat, turnover of whole substrate (ScOMPDC): 16 s^–1

SMILES: O=[PH](O)O [HPO3^2–, phosphite dianion]
intrinsic dianion binding energy (given without sign) ([3]; ScTIM): 6.3 kcal/mol
RT ln(K^‡)X, intrinsic Gibbs dianion binding free energy ([3]; ScTIM): –6.3 kcal/mol
RT ln(K^‡)X, intrinsic Gibbs dianion binding free energy ([3]; ScTIM, listed as phosphite dianion): −6.3 kcal/mol
ratio of (kcat/Km)E·X/KX to (kcat/Km)E ([3]; ScTIM-catalyzed isomerization, substrate pieces): 4.4 × 10^4 M^–1
Kd [3]: 18 ± 3 mM
RT ln(K^‡)X, intrinsic Gibbs dianion binding free energy ([4]; 25 °C): –7.5 kcal/mol
RT ln(K^‡)X, intrinsic Gibbs dianion binding free energy ([4]; 25 °C, listed as phosphite dianion): −7.5 kcal/mol
(kcat)E·X, first-order rate constant for turnover of the Michaelis complex [4, 6]: 5.5 ± 0.3 s^–1
Kd ([4]; read-out: KX, dissociation constant for release of the oxydianion from the binary or ternary enzyme complex, pH 7.5 (10 mM TEA), 25 °C, 0.2 mM NADH, I = 0.12 (NaCl)): 70 ± 4 mM
intrinsic dianion binding energy (given without sign) ([1]; ScOMPDC): 7.7 kcal/mol
ratio of (kcat/Km)E·X/KX to (kcat/Km)E ([1]; yeast OMPDC-catalyzed decarboxylation, substrate pieces): 4.4 × 10^5 M^–1
intrinsic oxydianion binding energy (ΔG^‡) [2]: -7.7 kcal/mol
